Source: patent US6703407B1, “Benzofuran compounds, compositions, and methods” (Eli Lilly and Company, priority 1994, dated 2004)

How the values were obtained:
Type in all cases: in vivo, Sprague Dawley rats
[1] = tested on: Uterine Eosinophil Peroxidase (EPO); experiment: Uterine Eosinophil Peroxidase (EPO) Assay; conditions: for Uterine EPO (V. max): OVX rats, oral daily for 4 days
Excerpt: (§1) Seventy-five day old female Sprague Dawley rats (weight range of 200 to 225 g) were obtained from Charles River Laboratories (Portage, Mich.). The animals were either bilaterally ovariectomized (OVX) or exposed to a Sham surgical procedure at Charles River Laboratories, and then shipped after one week. Upon arrival, they were housed in metal hanging cages in groups of 3 or 4 per cage and had ad libitum access to food (calcium content approximately 0.5%) and water for one week. Room temperature was maintained at 22.20±1.7° C. with a minimum relative humidity of 40%. The photoperiod in the room was 12 hours light and 12 hours dark.
(§2) Dosing Regimen Tissue Collection. After a one week acclimation period (therefore, two weeks post-OVX) daily dosing with test compound was initiated. 17α-ethynyl estradiol or the test compound were given orally, unless otherwise stated, as a suspension in 1% carboxymethylcellulose or dissolved in 20% cyclodextrin. Animals were dosed daily for 4 days. Following the dosing regimen, animals were weighed and anesthetized with a ketamine: Xylazine (2:1, V:V) mixture and a blood sample was collected by cardiac puncture. The animals were then sacrificed by asphyxiation with CO2, the uterus was removed through a midline incision, and a wet uterine weight was determined.
Uterine Eosinophil Peroxidase (EPO) Assay. Uteri were kept at 4° C. until time of enzymatic analysis. The uteri were then homogenized in 50 volumes of 50 mM Tris buffer (pH−8.0) containing 0.005% Triton X-100. Upon addition of 0.01% hydrogen peroxide and 10 mM o-phenylenediamine (final concentrations) in Tris buffer, increase in absorbance was monitored for one minute at 450 nm. The presence of eosonophils in the uterus is an indication of estrogenic activity of a compound. The maximal velocity of a 15 second interval was determined over the initial, linear portion of the reaction curve.

ovariectomized rats [2] = experiment: Uterine weight in ovariectomized rat post-menopausal model (4-day dosing); conditions: for Uterine Weight (% increase vs. OVX): OVX rats, oral daily for 4 days
Description: (§3) In the examples illustrating the methods, a post-menopausal model was used in which effects of different treatments upon circulating lipids were determined.
as §1, §2

ovariectomized rats [3] = experiment: Serum cholesterol in ovariectomized rat post-menopausal model (4-day dosing); conditions: oral daily for 4 days
Description: as §3, §1, §2
Cholesterol Analysis. Blood samples were allowed to clot at room temperature for 2 hours, and serum was obtained following centrifugation for 10 minutes at 3000 rpm. Serum cholesterol was determined using a Boehringer Mannheim Diagnostics high performance cholesterol assay. Briefly the cholesterol was oxidized to cholest-4-en-3-one and hydrogen peroxide. The hydrogen peroxide was then reacted with phenol and 4-aminophenazone in the presence of peroxidase to produce a p-quinone imine dye, which was read spectrophotemetrically at 500 nm. Cholesterol concentration was then calculated against a standard curve. The entire assay was automated using a Biomek Automated Workstation.

Compound | Uterine EPO (V. max) ([1]; dose 0.1 mg/kg) | eosinophil infiltration into the uterus (number of eosinophils in the stromal layer, in words) ([1]; ovariectomized rats) | Uterine Weight (% increase vs. OVX) (ovariectomized rats [2]; dose 0.1 mg/kg) | uterine weight vs. ovariectomized test animals (in words) (ovariectomized rats [2]; orally administered at 0.1 mg/Kg/day) | Serum Cholesterol (% decrease vs. OVX) (ovariectomized rats [3]; dose 0.1 mg/kg) | Uterine EPO (V. max) ([1]; dose 1.0 mg/kg) | Uterine EPO (V. max) ([1]; dose 10.0 mg/kg) | Uterine Weight (% increase vs. OVX) (ovariectomized rats [2]; dose 1.0 mg/kg) | Uterine Weight (% increase vs. OVX) (ovariectomized rats [2]; dose 10.0 mg/kg) | Serum Cholesterol (% decrease vs. OVX) (ovariectomized rats [3]; dose 1.0 mg/kg) | Serum Cholesterol (% decrease vs. OVX) (ovariectomized rats [3]; dose 10.0 mg/kg)
C#C[C@]1(O)CC[C@H]2[C@@H]3CCc4cc(O)ccc4[C@H]3CC[C@@]21C [EE2, 17α-ethynyl estradiol, reference compound] | 201.9 | substantial, expected increase in eosinophil infiltration | 172.8 | substantially greater than the uterine weight of ovariectomized test animals | 92.6 | – | – | – | – | – | –
Cl.Oc1ccc(-c2oc3cc(O)ccc3c2Cc2ccc(OCCN3CCCCC3)cc2)cc1 [Ex-3, [2-(4-Hydroxyphenyl)-6-hydroxybenzofuran-3-yl][4-[2-(1-piperidinyl)ethoxy]phenyl]methane Hydrochloride] | 4.7 | – | 8.6 | – | 38.9 | 5.8 | 11.3 | 26.3 | 30.1 | 53.0 | 73.3
